“And” between values parts separate entries of the source, which are not always exact repeats. Equal entries are not always repeated. The source made the active and inactive calls. No rule for the calls is given here.

The target of this assay is AddAB helicase-nuclease (Helicobacter pylori 26695). The assay can be described thus: inhibition of H. pylori AddAB nuclease activity – biochemical, radioactivity, purified enzyme, IC50, late-stage follow-up (AID 602421). The following applies: radioactive DNA degradation.
As usually defined, the IC50 is the concentration that inhibits the measured activity by half. As for `N#Cc1c(NC(=O)c2ccc([N+](=O)[O-])o2)sc2c1CCC2`, the half-maximal inhibitory concentration (IC50) is 96 µM.
Consider `CCn1cc(C(=O)O)c(=O)c2cc(F)c(N3CCN(C(=S)Nc4cccc(C(F)(F)F)c4)CC3)cc21`, for which the 50% inhibitory concentration (IC50) is 11 µM.
Under `CNC(=O)c1c(NC(=O)c2nc(SCc3ccccc3)ncc2Cl)sc2c1CCCC2` stands 55 µM.
On to `O=C(Nc1ncccn1)c1ccc([N+](=O)[O-])o1`, for which the IC50 is > 100 µM (inactive).
As for `CCn1cc(C(=O)O)c(=O)c2cnc(N3CCN(C(=S)NCc4ccccc4)CC3)nc21`, the entry is “inactive”.
Under `CC1(C)Cc2c(sc(NC(=O)c3ccco3)c2C#N)CO1` stands > 100 µM (inactive); under `N#Cc1c(NC(=O)c2ccccc2C(=O)O)sc2c1CCCC2`, > 100 µM (inactive); under `N#Cc1c(NC(=O)c2ccc([N+](=O)[O-])o2)sc2c1CCCC2`, > 100 µM (inactive).
As for `O=C(NCc1cccnc1)c1ccc([N+](=O)[O-])o1`, the figure is > 100 µM (inactive).
As to `O=C(Nc1ccc(N2CCOCC2)cc1)c1ccc([N+](=O)[O-])o1`, the IC50 is > 100 µM (inactive).
As for `Cc1ccc(C(=O)Nc2sc3c(c2C#N)CCCCC3)o1`, the IC50 was > 100 µM (inactive).
`CCn1cc(C(=O)O)c(=O)c2cnc(N3CCN(C(=S)Nc4cccc(C(F)(F)F)c4)CC3)nc21`: the 50% inhibitory concentration (IC50) was 27 µM.
As for `N#Cc1c(NC(=O)c2ccc(-c3ccccc3[N+](=O)[O-])o2)sc2c1CCCC2`, the figure is > 100 µM (inactive).
On to `O=C(OCC(=O)c1cccs1)c1ccc([N+](=O)[O-])o1`, for which the IC50 was > 100 µM (inactive).
As for `O=C(Nc1cccc(NC(=O)c2ccccc2Cl)c1)c1ccc([N+](=O)[O-])o1`, the IC50 is > 100 µM (inactive).
As for `N#Cc1c(NC(=O)c2ccccc2)sc2c1CCC2`, the figure is > 100 µM (inactive); as for `Cc1ccc2nc(/C(C#N)=C\c3ccc([N+](=O)[O-])o3)[nH]c2c1`, > 166 µM (inactive).
As for `N#Cc1c(NC(=O)c2cccc(F)c2)sc2c1CCCC2`, the figure is > 100 µM (inactive); as for `Cc1cccnc1NC(=O)c1ccc([N+](=O)[O-])o1`, > 166 µM (inactive).
As for `CCn1cc(C(=O)O)c(=O)c2cc(F)c(N3CCN(C(=S)Nc4ccccc4C(F)(F)F)CC3)cc21`, the IC50 is 79 µM.
As to `N#Cc1c(NC(=O)c2cnccn2)sc2c1CCCC2`, the half-maximal inhibitory concentration (IC50) was 17 µM.
`NC(=O)c1ccsc1NC(=O)COC(=O)c1ccc([N+](=O)[O-])o1`: the IC50 was > 100 µM (inactive).
As for `CCn1cc(C(=O)O)c(=O)c2cnc(N3CCN(C(=S)Nc4ccccc4C(F)(F)F)CC3)nc21`, the figure is 34 µM and > 100 µM (inactive); as for `C=CCn1c(Sc2ncc([N+](=O)[O-])s2)n[nH]c1=O`, 93 µM.
As to `Cc1sc(NC(=O)c2ccc(Br)o2)c(C#N)c1C`, the 50% inhibitory concentration (IC50) is 25 µM.
Under `COC(=O)c1c(-c2ccccc2)csc1NC(=O)c1cnccn1` stands 11 µM.
On to `N#Cc1c(NC(=O)c2ccco2)sc2c1CCC2`, for which the IC50 was 36 µM.
As for `CCn1cc(C(=O)O)c(=O)c2cnc(N3CCN(C(=S)NC(=O)c4cccc(C)c4)CC3)nc21`, the entry is “inactive”.
